Measured values as given in publication PMC6770006, “Novel Heat Shock Protein 90 Inhibitors Suppress P-Glycoprotein Activity and Overcome Multidrug Resistance in Cancer Cells” (International Journal of Molecular Sciences, 2019).
Entries after “also recorded” stand apart in the source; their conditions may differ.

How the values were obtained:
P-gp = P-gp (Homo sapiens, UniProt P08183); test: Rhodamine 123 accumulation assay (P-gp activity, flow cytometry); assay type: cell-based; parameters: P-gp overexpressing multidrug resistant DLD1-TxR cells were selected by continuous exposure to stepwise increasing concentrations of paclitaxel from DLD1 cells; endogenous in cells; host or cells: NCI-H460/R and DLD1-TxR (drug-selected MDR human cancer cells); conditions: MDR NCI-H460/R and DLD1-TxR cells, 30 min, one concentration per compound (100 nM-10 µM), Figure 3a
Sequence of P-gp (P08183 whole entry): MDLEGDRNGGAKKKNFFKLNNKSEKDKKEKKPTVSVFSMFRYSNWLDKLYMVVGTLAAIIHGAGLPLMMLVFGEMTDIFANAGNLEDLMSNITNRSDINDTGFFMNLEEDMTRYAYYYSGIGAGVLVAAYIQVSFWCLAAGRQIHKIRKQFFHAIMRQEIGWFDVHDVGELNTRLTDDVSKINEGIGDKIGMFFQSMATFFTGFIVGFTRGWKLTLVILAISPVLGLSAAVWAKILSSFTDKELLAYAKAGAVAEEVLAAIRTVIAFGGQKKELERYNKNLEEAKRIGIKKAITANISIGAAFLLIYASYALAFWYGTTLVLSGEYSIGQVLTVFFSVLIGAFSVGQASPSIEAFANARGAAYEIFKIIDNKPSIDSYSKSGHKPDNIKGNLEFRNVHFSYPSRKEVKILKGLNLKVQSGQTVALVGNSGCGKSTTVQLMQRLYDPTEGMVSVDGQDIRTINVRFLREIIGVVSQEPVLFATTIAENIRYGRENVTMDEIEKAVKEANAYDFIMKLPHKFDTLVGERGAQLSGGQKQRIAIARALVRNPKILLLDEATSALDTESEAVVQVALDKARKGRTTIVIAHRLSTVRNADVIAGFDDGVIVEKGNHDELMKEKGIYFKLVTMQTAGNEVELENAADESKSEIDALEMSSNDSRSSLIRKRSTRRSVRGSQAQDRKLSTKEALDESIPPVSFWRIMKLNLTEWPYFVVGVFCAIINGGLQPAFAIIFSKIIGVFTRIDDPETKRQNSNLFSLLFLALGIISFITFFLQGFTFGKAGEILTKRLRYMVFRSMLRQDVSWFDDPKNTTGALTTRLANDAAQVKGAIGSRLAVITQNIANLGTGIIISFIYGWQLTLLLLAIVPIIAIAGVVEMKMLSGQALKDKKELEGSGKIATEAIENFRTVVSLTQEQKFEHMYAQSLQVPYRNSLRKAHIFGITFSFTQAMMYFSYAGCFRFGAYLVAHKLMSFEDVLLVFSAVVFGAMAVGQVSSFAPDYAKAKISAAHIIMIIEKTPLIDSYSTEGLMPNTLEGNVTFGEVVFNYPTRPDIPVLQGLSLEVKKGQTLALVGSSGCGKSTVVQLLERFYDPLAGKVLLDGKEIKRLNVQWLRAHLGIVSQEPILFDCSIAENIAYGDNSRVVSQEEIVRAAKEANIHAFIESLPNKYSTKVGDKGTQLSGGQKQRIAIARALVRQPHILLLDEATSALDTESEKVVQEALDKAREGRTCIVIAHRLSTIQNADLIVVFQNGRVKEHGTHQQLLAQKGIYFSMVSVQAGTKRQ
Procedure: To study the effect of Hsp90 inhibitors on P-gp activity in MDR cancer cells, intracellular accumulation of the P-gp substrate rhodamine 123 (Rho 123) was analyzed by flow cytometry after 30 min treatment (Figure 3a). A well-known inhibitor of P-gp activity, tariquidar (TQ), was included as a positive control.
The accumulation of Rho 123, a fluorescent P-gp substrate, was measured by flow cytometry. The intensity of the fluorescence is proportional to Rho 123 accumulation in the cell. All cell lines were seeded in adherent 6-well plates and grown overnight. DLD1-TxR and NCI-H460/R cells were treated for 30 min with the following concentrations of Hsp90 inhibitors: 500 nM compound 3, 1 µM compound 4, 10 µM compound 5, 500 nM compound 6, 500 nM compound 7, 1 µM compound 8, 500 nM compound 9, 1 µM compound 10, 1 µM compound 13, 10 µM compound 14, 100 nM compound 15. TQ (10 nM) was used as a positive control for Rho 123 accumulation. Rho 123 (5 μM) was simultaneously added with the investigated compounds and the cells were incubated at 37 °C in 5% CO2 for 30 min. The cells were then trypsinized, pelleted by centrifugation, washed with PBS and placed in ice-cold PBS. The samples were kept on ice in the dark until the analysis on CyFlow Space Partec flow cytometer (Sysmex Partec GmbH, Görlitz, Germany). The fluorescence of Rho 123 was detected on fluorescence channel 1 (FL1-H) at 530 nm. A minimum of 10,000 events were collected for each sample and the obtained results were analyzed using Summit software.

[1] = tested on: NCI-H460, NCI-H460/R, DLD1, DLD1-TxR cells; test: MTT assay, grouping of inhibitors by IC50 over the cancer cell lines; assay type: cell-based; conditions: Homo sapiens, Figure 2b, read-out: IC50 values (grouping for Pearson correlation)
Procedure: When the IC50 values obtained by the MTT assay were compared to Hsp90 affinity binding IC50 values (Table 1), a positive Pearson correlation (r > 0.5) was found for all cancer cell lines (Figure 2b).
(§1) Cell viability was assessed by the MTT assay (AppliChem GmbH, Darmstadt, Germany). Cells grown in 25 cm^2 tissue flasks were trypsinized and 1000 cells/well were seeded into flat-bottomed 96-well tissue culture plates and incubated overnight. Subsequently, the cells were treated with increasing concentrations of Hsp90 inhibitors for 72 h: compound 3 (0.1–2.5 µM), compound 4 (0.25–5 µM), compound 5 (0.5–25 µM), compound 6 (50–1000 nM), compound 7 (10–250 nM), compound 8 (0.25–5 µM), compound 9 (10–250 nM), compound 10 (0.5–25 µM), compound 13 (0.5–10 µM), compound 14 (1–25 µM), and compound 15 (10–250 nM). […] After treatment, MTT was added to each well in a final concentration of 0.2 mg/mL for 4 h. Formazan product was dissolved in 200 µl of DMSO, and the absorbance was measured at 540 nm using an automatic LKB 5060-006 Micro Plate Reader (Vienna, Austria). IC50 value was defined as a concentration of the drug that inhibited cell growth by 50% and was calculated by nonlinear regression analysis using GraphPad Prism 6.0 for Windows (La Jolla, CA, USA). Relative selectivity towards cancer cells was calculated as a relation between IC50 value obtained in MRC-5 cells and an average IC50 value from four tested cancer cell lines.

NCI-H460/R cells = test: MTT assay, cell growth inhibition, NCI-H460/R (MDR); assay type: cell-based, human; conditions: for IC50: Homo sapiens, NCI-H460, 72 h, MDR cells; for Efficacy in MDR NCI-H460/R cells compared with sensitive NCI-H460: 72 h
Procedure: A series of 3-aryl-naphtho[2,3-d]isoxazole-4,9-diones were synthesized (Scheme 1, Figure 1) and their growth inhibition activity was tested in vitro on human non-small cell lung carcinoma NCI-H460, colorectal carcinoma DLD1 and their corresponding MDR cells (NCI-H460/R and DLD1-TxR, respectively), as well as normal embryonic lung fibroblasts MRC-5. The differences in cell growth inhibition between cancer and normal cells obtained by the MTT assay after 72 h treatment are presented in Table 1. The effect of compounds is presented as IC50 values that correspond to the 50% of cell growth inhibition.
Human colorectal carcinoma (DLD1), non-small cell lung carcinoma (NCI-H460), and normal embryonic lung fibroblast (MRC-5) cell lines were purchased from the American Type Culture Collection, Rockville, MD. P-gp overexpressing multidrug resistant DLD1-TxR cells were selected by continuous exposure to stepwise increasing concentrations of paclitaxel from DLD1 cells, while NCI-H460/R cells were selected from NCI-H460 cells after DOX selective pressure. MDR cancer cell lines, DLD1-TxR and NCI-H460/R, and their sensitive counterparts were maintained in RPMI 1640 medium supplemented with 10% FBS, 2 mM L-glutamine, and 10,000 U/mL penicillin, 10 mg/mL streptomycin, 25 mg/mL amphotericin B solutions. MRC-5 cells were cultured in DMEM supplemented with 10% FBS, 4 g/L glucose, 2 mM L-glutamine and 5000 U/mL penicillin, 5 mg/mL streptomycin solution. All cell lines were sub-cultured at 72 h intervals using 0.25% trypsin/EDTA and seeded into a fresh medium at 8000 cells/cm^2. All cell lines were maintained at 37 °C in a humidified 5% CO2 atmosphere.
as §1

IC50 [1] [nM]	IC50 (NCI-H460/R cells) [nM]	Structure (SMILES)	P-gp activity / Rho 123 accumulation (P-gp)	Efficacy in MDR NCI-H460/R cells compared with sensitive NCI-H460 (NCI-H460/R cells)
< 1000	172 ± 5	O=C1c2ccccc2C(=O)c2c(-c3cccnc3)noc21 [Compound 9]	most prominent effect in both MDR cell lines	–
< 1000	231 ± 6	O=C1c2ccccc2C(=O)c2c(-c3ccncc3)noc21 [Compound 7]	most prominent effect in both MDR cell lines	evaded resistance in both MDR cancer cell lines
≥ 1000	25500 ± 925	O=C1c2ccccc2C(=O)c2c(-c3ccccc3O)noc21 [Compound 5]	significant beneficial effect on P-gp inhibition; also recorded: most prominent effect in both MDR cell lines	further compromised in the presence of MDR phenotype
